Experiments:
[1] = molecular target: T1, Delta-type opioid receptor (Homo sapiens, UniProt P41143); test: Displacement of [3H]Cl-DPDPE from human recombinant DOR expressed in CHO cells; assay type: cell-based
[2] = test system: Mus musculus; test: Agonist activity in mouse by hot water tail withdrawal assay at 32 mg/kg, sc; assay type: functional; conditions: route subcutaneous
[3] = test system: Mus musculus; test: Antagonist activity against morphine-induced antinociception in sc dosed mouse by tail flick assay; assay type: functional
[4] = test system: Mus musculus; test: Agonist activity in sc dosed mouse by phenylquinone abdominal stretching assay; assay type: functional; conditions: Abdomen
[5] = test system: Mus musculus; test: Antagonist activity against morphine-induced antinociception in sc dosed mouse by hot water tail withdrawal assay at 32 mg/kg, sc; assay type: functional; parameters: scale not given: the % may be the effect or the level left; conditions: route subcutaneous
[6] = test system: Mus musculus; test: Agonist activity in sc dosed mouse by tail flick assay; assay type: functional
[7] = molecular target: T1, Delta-type opioid receptor; conditions: CHO
Description: Reversal of stimulation of [35S]GTP-gamma-S binding to human recombinant DOR transfected in CHO cells relative to DPDPE

[8] = molecular target: T2, Mu-type opioid receptor (Homo sapiens, UniProt P35372); test: Stimulation of [35S]GTPgammaS binding to human recombinant MOR; assay type: functional
[9] = molecular target: T3, Kappa-type opioid receptor (Homo sapiens, UniProt P41145); test: Stimulation of [35S]GTP-gamma-S binding to human recombinant KOR; assay type: functional
[10] = molecular target: T1, Delta-type opioid receptor; test: Stimulation of [35S]GTP-gamma-S binding to human recombinant DOR; assay type: functional
[11] = molecular target: T2, Mu-type opioid receptor; test: Reversal of stimulation of [35S]GTP-gamma-S binding to human recombinant MOR transfected in CHO cells relative to DAMGO; assay type: functional, cell-based
[12] = molecular target: T2, Mu-type opioid receptor; test: Displacement of [3H]DAMGO from human recombinant MOR expressed in CHO cells; assay type: cell-based
[13] = test system: Mus musculus; test: Antagonist activity against morphine-induced antinociception in sc dosed mouse by tail flick assay at 3 mg/kg, sc; assay type: functional; conditions: route subcutaneous
[14] = molecular target: T3, Kappa-type opioid receptor; test: biochemical; assay type: cell-based, CHO
Description: Displacement of [3H]U-69593 from human recombinant KOR expressed in CHO cells

[15] = molecular target: T3, Kappa-type opioid receptor; conditions: CHO
Description: Reversal of stimulation of [35S]GTPgammaS binding to human recombinant KOR transfected in CHO cells relative to U69593

[16] = molecular target: T1, Delta-type opioid receptor; test: Stimulation of [35S]GTPgammaS binding to human recombinant DOR relative to DPDPE; assay type: functional
[17] = molecular target: T3, Kappa-type opioid receptor; test: Activity at human recombinant KOR transfected in CHO cells assessed as reversal of stimulation of [35S]GTPgammaS binding; assay type: functional, cell-based; conditions: filed as antagonist
[18] = molecular target: T1, Delta-type opioid receptor; test: Activity at human recombinant DOR transfected in CHO cells assessed as reversal of stimulation of [35S]GTP-gamma-S binding; assay type: functional, cell-based
[19] = molecular target: T2, Mu-type opioid receptor; test: Activity at human recombinant MOR transfected in CHO cells assessed as reversal of stimulation of [35S]GTP-gamma-S binding; assay type: functional, cell-based; conditions: filed as antagonist
[20] = molecular target: Kappa-type opioid receptor (Cavia porcellus, UniProt P41144); test: Binding affinity to KOR in guinea pig brain membrane; assay type: cell membranes
[21] = test system: Mus musculus; test: Agonist activity in sc dosed mouse by hot water tail withdrawal assay at 10 mg/kg, sc; assay type: functional; conditions: route subcutaneous
[22] = molecular target: Mu-type opioid receptor (Cavia porcellus, UniProt P97266); test: Binding affinity to MOR in guinea pig brain membrane; assay type: cell membranes
[23] = test system: Mus musculus; test: Agonist activity in mouse by phenylquinone abdominal stretching assay at 30 mg/kg, sc; assay type: functional; conditions: Abdomen, route subcutaneous
[24] = test system: Mus musculus; test: Agonist activity in sc dosed mouse by hot water tail withdrawal assay at 1 mg/kg, sc; assay type: functional; conditions: route subcutaneous
[25] = test system: Mus musculus; test: Agonist activity in mouse by phenylquinone abdominal stretching assay at 1 mg/kg, sc; assay type: functional; conditions: Abdomen, route subcutaneous
[26] = test system: Mus musculus; test: Agonist activity in mouse by phenylquinone abdominal stretching assay at 0.3 mg/kg, sc; assay type: functional; conditions: Abdomen, route subcutaneous

T2 sequence (P35372 whole entry): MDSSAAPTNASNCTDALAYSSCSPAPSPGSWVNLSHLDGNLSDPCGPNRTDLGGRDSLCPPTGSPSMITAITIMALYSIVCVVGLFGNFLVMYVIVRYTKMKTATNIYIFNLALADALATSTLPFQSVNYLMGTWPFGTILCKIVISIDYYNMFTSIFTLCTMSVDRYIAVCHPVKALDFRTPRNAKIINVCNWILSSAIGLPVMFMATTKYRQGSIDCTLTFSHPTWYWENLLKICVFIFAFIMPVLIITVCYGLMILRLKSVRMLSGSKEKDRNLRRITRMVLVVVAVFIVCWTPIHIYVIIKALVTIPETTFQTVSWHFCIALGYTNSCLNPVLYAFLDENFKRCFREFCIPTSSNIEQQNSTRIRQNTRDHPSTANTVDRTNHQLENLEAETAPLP
T3 sequence (P41145 whole entry): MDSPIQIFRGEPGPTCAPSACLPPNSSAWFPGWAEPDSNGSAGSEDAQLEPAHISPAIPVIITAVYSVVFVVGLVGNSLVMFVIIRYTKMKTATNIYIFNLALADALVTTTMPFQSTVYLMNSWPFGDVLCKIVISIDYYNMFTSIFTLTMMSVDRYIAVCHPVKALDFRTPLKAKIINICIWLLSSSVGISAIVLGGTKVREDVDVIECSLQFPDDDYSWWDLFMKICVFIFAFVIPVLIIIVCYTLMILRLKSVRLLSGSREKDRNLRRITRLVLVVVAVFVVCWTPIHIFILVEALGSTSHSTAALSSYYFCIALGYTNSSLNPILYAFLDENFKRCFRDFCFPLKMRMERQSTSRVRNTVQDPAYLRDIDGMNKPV
T1 sequence (P41143 whole entry): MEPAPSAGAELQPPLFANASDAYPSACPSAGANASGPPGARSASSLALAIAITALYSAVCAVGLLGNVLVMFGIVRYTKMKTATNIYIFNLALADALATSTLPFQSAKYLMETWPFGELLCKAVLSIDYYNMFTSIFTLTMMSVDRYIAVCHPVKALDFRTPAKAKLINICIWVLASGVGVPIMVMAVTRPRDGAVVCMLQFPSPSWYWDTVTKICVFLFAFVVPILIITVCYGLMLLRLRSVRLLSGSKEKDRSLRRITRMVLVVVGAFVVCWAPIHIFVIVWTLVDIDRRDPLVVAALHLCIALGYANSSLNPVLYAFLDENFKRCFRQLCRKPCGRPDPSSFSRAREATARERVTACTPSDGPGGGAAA
Mu-type opioid receptor (Cavia porcellus, UniProt P97266), sequence (P97266 whole entry): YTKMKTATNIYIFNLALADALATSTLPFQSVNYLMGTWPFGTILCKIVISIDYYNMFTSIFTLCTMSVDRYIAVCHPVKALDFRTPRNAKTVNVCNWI
Kappa-type opioid receptor (Cavia porcellus, UniProt P41144), sequence (P41144 whole entry): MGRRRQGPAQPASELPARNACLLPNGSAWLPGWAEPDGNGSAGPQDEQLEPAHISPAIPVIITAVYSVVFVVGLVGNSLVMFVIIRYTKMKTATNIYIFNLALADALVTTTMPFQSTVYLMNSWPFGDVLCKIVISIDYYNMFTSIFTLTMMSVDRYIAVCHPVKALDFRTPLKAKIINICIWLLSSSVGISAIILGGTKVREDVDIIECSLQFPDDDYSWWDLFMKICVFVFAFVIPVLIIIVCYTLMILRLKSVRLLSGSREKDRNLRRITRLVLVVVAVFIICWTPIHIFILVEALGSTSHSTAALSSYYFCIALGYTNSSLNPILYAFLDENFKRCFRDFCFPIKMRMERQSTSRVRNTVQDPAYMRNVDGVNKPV

Structure (SMILES)	Ki [1] [nM]	Activity [2] [%]	AD50 [3] [mg/kg]	ED50 [4] [mg/kg]	Activity [5] [%]	ED50 [6] [mg/kg]	EC50 [8] [nM]	EC50 [9] [nM]	EC50 [10] [nM]	Ki [12] [nM]	Ki [14] [nM]	Activity [16] [%]	further results
COc1ccc2c3c1O[C@H]1C(=O)CC[C@@]4(NC(=O)/C=C/c5ccc(Cl)cc5)[C@@H](C2)N(CC2CC2)CC[C@]314	4.8	0	>6	0.2	65	> 30							Ke [7]: 7.2 nM
CN1CC[C@]23c4c5cccc4O[C@H]2C(=O)CC[C@@]3(NC(=O)/C=C/c2ccccc2Cl)[C@H]1C5			>30	0.04		0.12	0.04	0.1	0.1				
COc1ccc2c3c1O[C@H]1C(=O)CC[C@@]4(NC(=O)/C=C/c5ccc(C)cc5)[C@@H](C2)N(CC2CC2)CC[C@]314		10	5.7	0.1	40	> 30							
Cc1ccccc1/C=C/C(=O)N[C@@]12CCC(=O)[C@@H]3Oc4c(O)ccc5c4[C@@]31CCN(CC1CC1)[C@@H]2C5	1.25	0		3.17	65	> 30				0.72	1.5		Ke [11]: 0.29 nM; inhibition in vivo at 3 mg/kg [13]: 50%; Ke [15]: 0.16 nM; Ke [7]: 0.4 nM
COc1ccc2c3c1O[C@H]1C(=O)CC[C@@]4(NC(=O)/C=C/c5ccccc5)[C@@H](C2)N(CC2CC2)CC[C@]314		40			65								
COc1ccc2c3c1O[C@H]1C(=O)CC[C@@]4(NC(=O)/C=C/c5ccccc5[N+](=O)[O-])[C@@H](C2)N(CC2CC2)CC[C@]314		40											
CN1CC[C@]23c4c5ccc(O)c4O[C@H]2C(=O)CC[C@@]3(NC(=O)/C=C/c2ccc([N+](=O)[O-])cc2)[C@H]1C5	0.54									0.2	5.5		Ke [11]: 0.13 nM; Ke [15]: 3.3 nM; Ke [7]: 1.4 nM
CN1CC[C@]23c4c5ccc(O)c4O[C@H]2C(=O)C=C[C@@]3(NC(=O)/C=C/c2ccc(Cl)cc2)[C@H]1C5			>30			0.5							
COc1ccc2c3c1O[C@H]1C(=O)CC[C@@]4(NC(=O)/C=C/c5ccc(C)cc5)[C@@H](C2)N(C)CC[C@]314	2.9		>30	0.4		0.06	2.5	84	76	0.49	9.9	86	
Cc1ccc(CCC(=O)N[C@@]23CCC(=O)[C@@H]4Oc5c(O)ccc6c5[C@@]42CCN(C)[C@@H]3C6)cc1	1.25		>30	0.09		0.5				0.35	0.57		Activity [17]: Antagonist; Ke [11]: 0.32 nM; Activity ([18]; filed as partial agonist): Partial agonist; Activity [19]: Antagonist; Ke [15]: 4.9 nM; Ke ([7]; filed as partial agonist): Partial agonist
COc1ccc2c3c1O[C@H]1C(=O)CC[C@@]4(NC(=O)/C=C/c5ccccc5Cl)[C@@H](C2)N(CC2CC2)CC[C@]314					10		3.8	9	17.5			36	Ki [20]: 2.4 nM; Activity [21]: >90%; Ki [22]: 0.6 nM
O=C(/C=C/c1ccccc1Cl)N[C@@]12CCC(=O)[C@@H]3Oc4c(O)ccc5c4[C@@]31CCN(CC1CC1)[C@@H]2C5	1.3	0			65					0.71	2.4		Ke [11]: 0.45 nM; Ke [15]: 0.38 nM; Ke [7]: 0.67 nM
Cc1ccccc1/C=C/C(=O)N[C@@]12CCC(=O)[C@@H]3Oc4c(O)ccc5c4[C@@]31CCN(C)[C@@H]2C5	0.11		>30	0.03		0.08	0.04	0.2	0.4	0.21	0.23	71	
O=C(/C=C/c1ccc(Cl)cc1)N[C@@]12CCC(=O)[C@@H]3Oc4c(O)ccc5c4[C@@]31CCN(CC1CC1)[C@@H]2C5 [CLOCINNAMOX]	2.7	0	0.12		>90	> 30				2.98	1.4		inhibition in vivo at 30 mg/kg [23]: 69%; Ke [11]: 0.53 nM; Ke [15]: 0.1 nM; Ke [7]: 0.19 nM
COc1ccc2c3c1O[C@H]1C(=O)CC[C@@]4(NC(=O)/C=C/c5ccccc5C)[C@@H](C2)N(C)CC[C@]314	0.42						0.5	5.6	4.6	0.4	2.3	108	
O=C(/C=C/c1ccc([N+](=O)[O-])cc1)N[C@@]12CCC(=O)[C@@H]3Oc4c(O)ccc5c4[C@@]31CCN(CC1CC1)[C@@H]2C5		40			>90								
COc1ccc2c3c1O[C@H]1C(=O)CC[C@@]4(NC(=O)/C=C/c5ccccc5C)[C@@H](C2)N(CC2CC2)CC[C@]314			>30	0.03	10	0.03	2.6	1.8	20.9			39	Ki [20]: 2.1 nM; Activity [24]: >90%; Ki [22]: 0.2 nM
Cc1ccc(/C=C/C(=O)N[C@@]23CCC(=O)[C@@H]4Oc5c(O)ccc6c5[C@@]42CCN(C)[C@@H]3C6)cc1	4		0.6			> 30				0.34	1.5		Activity [17]: Antagonist; Ke [11]: 0.3 nM; Activity ([18]; filed as antagonist): Antagonist; inhibition in vivo at 1 mg/kg [25]: 57%; Activity [19]: Antagonist; Ke [15]: 4.1 nM; Ke [7]: 2.2 nM
COc1ccc2c3c1O[C@H]1C(=O)CC[C@@]4(NC(=O)/C=C/c5ccc([N+](=O)[O-])cc5)[C@@H](C2)N(CC2CC2)CC[C@]314					40								Activity [21]: >90%
COc1ccc2c3c1O[C@H]1C(=O)CC[C@@]4(NC(=O)/C=C/c5ccc(Cl)cc5)[C@@H](C2)N(C)CC[C@]314	1		>30	0.02		0.04	0.9		5	0.6		50	
COc1ccc2c3c1O[C@H]1C(=O)CC[C@@]4(NC(=O)/C=C/c5ccccc5Cl)[C@@H](C2)N(C)CC[C@]314	0.58						0.5	8.5	2.2	0.68	2.5	110	
O=C(/C=C/c1ccccc1)N[C@@]12CCC(=O)[C@@H]3Oc4c(O)ccc5c4[C@@]31CCN(CC1CC1)[C@@H]2C5		0	1.3		40	> 30							inhibition in vivo at 0.3 mg/kg [26]: 66%

From ChEMBL document CHEMBL1146036, “Structural determinants of opioid activity in derivatives of 14-aminomorphinones: effect of substitution in the aromatic ring of cinnamoylaminomorphinones and codeinones” (J Med Chem, 2006)
